Results published in patent US11339161B2, “Triazolo pyridines as modulators of gamma-secretase” (Boehringer Ingelheim International GmbH, priority 2017, dated 2022).
Like-named read-outs stand apart in the source and are kept apart here.

What was measured:
CSF1R (FMS) = CSF1R (FMS) (Homo sapiens, UniProt P07333); test: Z'-LYTE SelectScreen biochemical kinase assay CSF1R (FMS)
Source text: (§1) Thermo Fisher Scientific SelectScreen™ Biochemical Kinase Profiling Service Z′-LYTE™ Screening Protocol and Assay Conditions Assay Theory
(§2) The […] biochemical assay employs a fluorescence-based, coupled-enzyme format and is based on the differential sensitivity of phosphorylated and non-phosphorylated peptides to proteolytic cleavage. The peptide substrate is labeled with two fluorophores—one at each end—that make up a FRET pair. In the primary reaction, the kinase transfers the gamma-phosphate of ATP to a single tyrosine, serine or threonine residue in a synthetic FRET-peptide. In the secondary reaction, a site-specific protease recognizes and cleaves non-phosphorylated FRET-peptides. Phosphorylation of FRET-peptides suppresses cleavage by the Development Reagent. Cleavage disrupts FRET between the donor (i.e., coumarin) and acceptor (i.e., fluorescein) fluorophores on the FRET-peptide, whereas uncleaved, phosphorylated FRET-peptides maintain FRET. A ratiometric method, which calculates the ratio (Emission Ratio=Coumarin emission (445 nm)/Fluorescein emission (520 nm)) of donor emission to acceptor emission after excitation of the donor fluorophore at 400 nm, is used to quantitate reaction progress, as shown in the equation below. A significant benefit of this ratiometric method for quantitating reaction progress is the elimination of well-to-well variations in FRET-peptide concentration and signal intensities. As a result, the assay yields very high Z′-factor values (>0.7) at a low percent phosphorylation. Both cleaved and uncleaved FRET-peptides contribute to the fluorescence signals and therefore to the Emission Ratio. The extent of phosphorylation of the FRET-peptide can be calculated from the Emission Ratio. The Emission Ratio will remain low if the FRET-peptide is phosphorylated (i.e., no kinase inhibition) and will be high if the FRET-peptide is non-phosphorylated (i.e., kinase inhibition).
(§3) The Test Compounds are screened in 1% DMSO (final) in the well. For 10 point titrations, 3-fold serial dilutions are conducted from the starting concentration of the customer's choosing.
(§4) All Peptide/Kinase Mixtures are diluted to a 2× working concentration in the appropriate Kinase Buffer (see section Kinase Specific Assay Conditions for a complete description).
(§5) All ATP Solutions are diluted to a 4× working concentration in Kinase Buffer (50 mM HEPES pH 7.5, 0.01% BRIJ-35, 10 mM MgCl2, 1 mM EGTA). ATP Km apparent is previously determined using a Z″-LYTE assay.
(§6) The Development Reagent is diluted in Development Buffer (see section Kinase-Specific Assay Conditions—Direct and Cascade for a complete description).
(§7) Bar-coded Corning, low volume NBS, black 384-well plate (Corning Cat. #4514) • 1. 100 nL—100× Test Compound in 100% DMSO • 2. 2.4 μL—Kinase buffer • 3. 5 μL—2× Peptide/Kinase Mixture • 4. 2.5 μL—4×ATP Solution • 5. 30—second plate shake • 6. 60—minute Kinase Reaction incubation at room temperature • 7. 5 μL—Development Reagent Solution • 8. 30—second plate shake • 9. 60—minute Development Reaction incubation at room temperature • 10. Read on fluorescence plate reader and analyze the data Z′-LYTE Assay Controls
(§8) SelectScreen Kinase Profiling Service uses XLfit from IDBS. The dose response curve is curve fit to model number 205 (sigmoidal dose-response model).
The 2×CSF1R (FMS)/Tyr 01 mixture is prepared in 50 mM HEPES pH 7.5, 0.01% BRIJ-35, 10 mM MgCl2, 1 mM EGTA. The final 10 μL Kinase Reaction consists of 0.2-40 ng CSF1R (FMS) and 2 μM Tyr 01 in 50 mM HEPES pH 7.5, 0.01% BRIJ-35, 10 mM MgCl2, 1 mM EGTA. After the 1 hour Kinase Reaction incubation, 5 μL of a 1:256 dilution of Development Reagent B is added.

AURKA (Aurora A) = target: T1, AURKA (Aurora A) (Homo sapiens, UniProt O14965); test: Z'-LYTE SelectScreen biochemical kinase assay AURKA (Aurora A)
T1 sequence (O14965 1-403): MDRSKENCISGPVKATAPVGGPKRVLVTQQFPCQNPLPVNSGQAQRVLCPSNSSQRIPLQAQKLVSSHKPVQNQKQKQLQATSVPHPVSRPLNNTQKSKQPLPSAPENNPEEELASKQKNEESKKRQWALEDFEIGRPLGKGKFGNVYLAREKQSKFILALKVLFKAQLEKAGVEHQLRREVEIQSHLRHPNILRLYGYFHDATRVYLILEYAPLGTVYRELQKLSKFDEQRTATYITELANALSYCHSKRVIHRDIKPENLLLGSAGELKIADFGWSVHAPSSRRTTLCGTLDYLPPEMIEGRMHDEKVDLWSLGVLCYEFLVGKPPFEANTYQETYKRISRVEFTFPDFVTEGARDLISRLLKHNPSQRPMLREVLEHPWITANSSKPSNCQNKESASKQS
Source text: as §1, §2, §3, §4, §5, §6, §7, §8
The 2×AURKA (Aurora A)/Ser/Thr 01 mixture is prepared in 50 mM HEPES pH 7.5, 0.01% BRIJ-35, 10 mM MgCl2, 1 mM EGTA. The final 10 μL Kinase Reaction consists of 0.91-8.56 ng AURKA (Aurora A) and 2 μM Ser/Thr 01 in 50 mM HEPES pH 7.5, 0.01% BRIJ-35, 10 mM MgCl2, 1 mM EGTA. After the 1 hour Kinase Reaction incubation, 5 μL of a 1:4096 dilution of Development Reagent A is added.

PDGFRA (PDGFR alpha) = PDGFRA (PDGFR alpha) (Homo sapiens, UniProt P16234); test: Z'-LYTE SelectScreen biochemical kinase assay PDGFRA (PDGFR alpha)
Sequence of PDGFRA (PDGFR alpha) (P16234 24-1089): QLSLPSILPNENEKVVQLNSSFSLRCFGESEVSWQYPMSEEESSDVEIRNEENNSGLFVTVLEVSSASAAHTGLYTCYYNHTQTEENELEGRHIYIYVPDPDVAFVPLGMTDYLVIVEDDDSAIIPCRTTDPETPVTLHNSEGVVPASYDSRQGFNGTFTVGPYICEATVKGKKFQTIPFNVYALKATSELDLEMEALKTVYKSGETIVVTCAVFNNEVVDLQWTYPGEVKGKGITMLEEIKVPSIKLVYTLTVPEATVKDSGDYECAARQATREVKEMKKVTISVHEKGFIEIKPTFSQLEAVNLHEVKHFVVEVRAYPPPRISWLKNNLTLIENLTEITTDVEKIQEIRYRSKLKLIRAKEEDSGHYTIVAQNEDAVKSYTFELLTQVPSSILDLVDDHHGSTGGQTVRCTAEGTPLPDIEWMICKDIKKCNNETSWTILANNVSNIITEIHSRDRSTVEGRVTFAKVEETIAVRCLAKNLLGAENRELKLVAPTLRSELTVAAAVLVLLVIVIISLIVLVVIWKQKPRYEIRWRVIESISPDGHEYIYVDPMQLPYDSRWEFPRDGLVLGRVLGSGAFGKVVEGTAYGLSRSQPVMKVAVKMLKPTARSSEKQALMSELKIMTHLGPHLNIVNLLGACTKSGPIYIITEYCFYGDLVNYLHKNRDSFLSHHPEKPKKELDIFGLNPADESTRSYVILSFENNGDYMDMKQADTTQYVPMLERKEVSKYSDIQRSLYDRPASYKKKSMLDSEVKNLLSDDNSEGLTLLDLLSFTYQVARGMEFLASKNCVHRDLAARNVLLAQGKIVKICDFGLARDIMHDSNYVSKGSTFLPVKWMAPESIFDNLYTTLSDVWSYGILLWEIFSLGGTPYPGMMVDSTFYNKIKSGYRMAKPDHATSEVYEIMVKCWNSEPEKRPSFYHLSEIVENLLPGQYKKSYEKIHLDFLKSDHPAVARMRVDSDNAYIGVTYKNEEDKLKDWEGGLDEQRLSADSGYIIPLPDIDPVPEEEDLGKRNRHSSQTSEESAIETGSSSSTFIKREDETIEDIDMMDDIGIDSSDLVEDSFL
Source text: as §1, §2, §3, §4, §5, §6, §7, §8
The 2×PDGFRA (PDGFR alpha)/Tyr 04 mixture is prepared in 50 mM HEPES pH 7.5, 0.01% BRIJ-35, 10 mM MgCl2, 4 mM MnCl2, 1 mM EGTA, 2 mM DTT. The final 10 μL Kinase Reaction consists of 1.54-22.6 ng PDGFRA (PDGFR alpha) and 2 μM Tyr 04 in 50 mM HEPES pH 7.5, 0.01% BRIJ-35, 10 mM MgCl2, 2 mM MnCl2, 1 mM EGTA, 1 mM DTT. After the 1 hour Kinase Reaction incubation, 5 μL of a 1:64 dilution of Development Reagent B is added.

[1] = 10 μmolar compound concentration, ATP at Km app, read-out: CSF1R (FMS) inhibition
[2] = read-out: % Inhibition mean CSF1R (FMS)
[3] = 10 μmolar compound concentration, ATP at Km app, read-out: AURKA (Aurora A) inhibition
[4] = read-out: % Inhibition mean AURKA (Aurora A)
[5] = 10 μmolar compound concentration, ATP at Km app, read-out: PDGFRA (PDGFR alpha) inhibition
[6] = read-out: % Inhibition mean PDGFRA (PDGFR alpha)

Sequence of CSF1R (FMS) (P07333 20-972): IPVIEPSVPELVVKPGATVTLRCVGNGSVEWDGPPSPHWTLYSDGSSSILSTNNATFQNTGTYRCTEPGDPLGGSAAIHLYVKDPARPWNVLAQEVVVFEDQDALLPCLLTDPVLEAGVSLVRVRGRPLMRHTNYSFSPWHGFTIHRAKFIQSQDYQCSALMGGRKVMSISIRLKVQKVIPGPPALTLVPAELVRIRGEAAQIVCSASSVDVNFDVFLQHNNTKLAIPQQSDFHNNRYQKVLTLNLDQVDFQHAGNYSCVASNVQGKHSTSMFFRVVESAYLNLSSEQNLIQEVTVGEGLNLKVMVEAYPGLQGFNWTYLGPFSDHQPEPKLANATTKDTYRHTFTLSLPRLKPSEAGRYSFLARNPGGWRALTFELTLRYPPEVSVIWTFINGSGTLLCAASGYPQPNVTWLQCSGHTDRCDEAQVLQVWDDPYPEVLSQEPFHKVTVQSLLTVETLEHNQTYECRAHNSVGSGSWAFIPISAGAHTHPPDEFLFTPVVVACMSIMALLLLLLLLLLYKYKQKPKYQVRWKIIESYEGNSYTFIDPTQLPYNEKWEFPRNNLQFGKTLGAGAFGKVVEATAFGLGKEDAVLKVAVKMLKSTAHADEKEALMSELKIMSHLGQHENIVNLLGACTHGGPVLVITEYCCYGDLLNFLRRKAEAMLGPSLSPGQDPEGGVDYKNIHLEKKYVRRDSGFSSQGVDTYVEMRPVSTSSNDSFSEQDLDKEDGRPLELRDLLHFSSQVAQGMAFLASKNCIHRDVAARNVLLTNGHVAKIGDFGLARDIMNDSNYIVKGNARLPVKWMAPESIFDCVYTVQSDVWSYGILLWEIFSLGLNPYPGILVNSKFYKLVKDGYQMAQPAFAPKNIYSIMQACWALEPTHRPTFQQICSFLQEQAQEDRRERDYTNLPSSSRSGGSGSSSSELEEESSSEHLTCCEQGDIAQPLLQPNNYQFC

Compound | inhibition at 10 µM (CSF1R (FMS); [1]) [%] | inhibition at 10 µM (CSF1R (FMS); [2]) [%] | inhibition at 10 µM (AURKA (Aurora A); [3]) [%] | inhibition at 10 µM (AURKA (Aurora A); [4]) [%] | inhibition at 10 µM (PDGFRA (PDGFR alpha); [5]) [%] | inhibition at 10 µM (PDGFRA (PDGFR alpha); [6]) [%] | inhibition at 10 µM (CSF1R (FMS); read-out: % Inhibition mean) [%] | inhibition at 10 µM (AURKA (Aurora A); read-out: % Inhibition mean) [%] | inhibition at 10 µM (PDGFRA (PDGFR alpha); read-out: % Inhibition mean) [%]
CCn1ncc2c1C(C)CC(Nc1nc3c(-c4cc(F)c(F)c(F)c4)cccn3n1)C2 (stereo not drawn) [Example 49, (1-Ethyl-7-methyl-4,5,6,7-tetrahydro-1H-indazol-5-yl)-[8-(3,4,5-trifluoro-phenyl)-[1,2,4]triazolo[1,5-a]pyridine-2-yl]-amine] | < 40 | 34 | < 40 | -14 | < 40 | 29 | – | – | –
Fc1cccc(-c2cccn3nc(Nc4ccc5[nH]cnc5c4)nc23)c1 [Cpd. 293 in WO09155551, reference compound] | > 80 | – | > 80 | – | > 80 | – | 90 | 89 | 88
Cc1cc(F)ccc1-c1cccn2nc(NC3CCc4cnn(C)c4C3)nc12 (stereo not drawn) [Example 40, [8-(4-Fluoro-2-methyl-phenyl)-[1,2,4]triazolo[1,5-a]pyridine-2-yl]-(1-methyl-4,5,6,7-tetrahydro-1H-indazol-6-yl)-amine] | < 40 | 25 | < 40 | 13 | < 40 | 5 | – | – | –
CCn1ncc2c1CCC(Nc1nc3c(-c4ccc(F)cc4C)cccn3n1)C2 (stereo not drawn) [Example 42, (1-Ethyl-4,5,6,7-tetrahydro-1H-indazol-5-yl)-[8-(4-fluoro-2-methyl-phenyl)-[1,2,4]triazolo[1,5-a]pyridine-2-yl]-amine] | < 40 | 34 | < 40 | -2 | < 40 | 12 | – | – | –
CCn1ncc2c1CCC(Nc1nc3c(-c4ccccc4)cccn3n1)C2 (stereo not drawn) [Example 57, (1-Ethyl-4,5,6,7-tetrahydro-1H-indazol-5-yl)-(8-phenyl-[1,2,4]triazolo[1,5-a]pyridine-2-yl)-amine] | 40 to 80 | 72 | < 40 | 7 | < 40 | 29 | – | – | –
CCn1ncc2c1CCC(Nc1nc3c(-c4cccnc4)cccn3n1)C2 (stereo not drawn) [Example 63, (1-Ethyl-4,5,6,7-tetrahydro-1H-indazol-5-yl)-(8-pyridin-3-yl-[1,2,4]triazolo[1,5-a]pyridine-2-yl)-amine] | 40 to 80 | 48 | < 40 | 29 | < 40 | 20 | – | – | –
CCn1ncc2c1CCC(Nc1nc3c(-c4cccc(Cl)c4)cccn3n1)C2 (stereo not drawn) [Example 59, [8-(3-Chloro-phenyl)-[1,2,4]triazolo[1,5-a]pyridine-2-yl]-(1-ethyl-4,5,6,7-tetrahydro-1H-indazol-5-yl)-amine] | 40 to 80 | 42 | < 40 | -21 | < 40 | 5 | – | – | –
CCn1ncc2c1CCC(Nc1nc3c(-c4ccc(F)cc4)cccn3n1)C2 (stereo not drawn) [Example 55, (1-Ethyl-4,5,6,7-tetrahydro-1H-indazol-5-yl)-[8-(4-fluoro-phenyl)-[1,2,4]triazolo[1,5-a]pyridine-2-yl]-amine] | < 40 | 34 | < 40 | 15 | < 40 | 16 | – | – | –
CCn1ncc2c1CC[C@@H](Nc1nc3c(-c4ccc(F)cc4C)cccn3n1)C2 [Example R-42, (R)-(1-Ethyl-4,5,6,7-tetrahydro-1H-indazol-5-yl)-[8-(4-fluoro-2-methyl-phenyl)-[1,2,4]triazolo[1,5-a]pyridine-2-yl]-amine] | < 40 | 31 | < 40 | 3 | < 40 | 18 | – | – | –
Cc1cc(F)ccc1-c1cccn2nc(NC3CCc4c(cnn4CC(C)C)C3)nc12 (stereo not drawn) [Example 45, [8-(4-fluoro-2-methyl-phenyl)-[1,2,4]triazolo[1,5-a]pyridine-2-yl]-(1-isobutyl-4,5,6,7-tetrahydro-1H-indazol-5-yl)-amine] | 40 to 80 | 40 | < 40 | -13 | < 40 | 30 | – | – | –
CCn1ncc2c1CCC(Nc1nc3c(-c4ccccc4C)cccn3n1)C2 (stereo not drawn) [Example 56, (1-Ethyl-4,5,6,7-tetrahydro-1H-indazol-5-yl)-[8-(2-methyl-phenyl)-[1,2,4]triazolo[1,5-a]pyridine-2-yl]-amine] | 40 to 80 | 58 | < 40 | 27 | < 40 | 21 | – | – | –
CCn1ncc2c1CCC(Nc1nc3c(-c4ccc(OC)nc4)cccn3n1)C2 (stereo not drawn) [Example 71, (1-Ethyl-4,5,6,7-tetrahydro-1H-indazol-5-yl)-[8-(6-methoxy-pyridin-3-yl)-[1,2,4]triazolo[1,5-a]pyridine-2-yl]-amine] | 40 to 80 | 62 | 40 to 80 | 42 | < 40 | 21 | – | – | –
Cc1cc(F)ccc1-c1cccn2nc(Nc3ccc4c(cnn4C)c3)nc12 [Example 9, [8-(4-fluoro-2-methyl-phenyl)-[1,2,4]triazolo[1,5-a]pyridine-2-yl]-(1-methyl-1H-indazol-5-yl)-amine] | > 80 | 82 | 40 to 80 | 57 | 40 to 80 | 59 | – | – | –
